From PMC8637440, “Structural Modifications Yield Novel Insights Into the Intriguing Pharmacodynamic Potential of Anti-inflammatory Nitro-Fatty Acids” (Frontiers in Pharmacology, 2021)

Assays:
COX-2 expression = COX-2 expression in A549 cells (Western blot); type: cell-based, human; details: 24 h; for COX-2 expression in IL-1β-stimulated A549 cells: 10 µM
Protocol: Cytoplasmic and nuclear extracts (100 µg each) and 30 µg whole-cell lysates were diluted in 5× Laemmli loading dye and denatured for 10 min at 95°C, loaded on a 10% SDS polyacrylamide gel, and separated by gel electrophoresis for 15 min at 80 V followed by 60 min at 120 V. The separated proteins were blotted onto a nitrocellulose membrane (Hybond-C Extra, Amersham Biosciences Ltd., UK) using the Mini Trans-Blot® module (Bio-Rad, Hercules, California, United States) for 90 min at 90 V. The membrane was blocked with Odyssey blocking buffer (Li-Cor Biosciences, Bad Homburg, Germany) or 5% milk powder in TBS-T (Tris Buffered Saline with 0.1% Tween) for 1 h at room temperature (RT). The membranes were incubated with the primary antibodies overnight at 4°C, and then with the secondary antibodies for 1 h at RT. The primary antibodies were diluted 1:1,000 and the secondary antibodies were diluted 1:10,000 to 1:20,000. […] Upon detection, the membrane was washed three times with 1× PBS-T (Phosphate-Buffered Saline with 0.1% Tween) or TBS-T and finally once with 1× PBS or TBS before the protein–antibody interaction was visualized on an Odyssey Infrared Imaging System (Li-Cor Biosciences) at 700 nm or 800 nm depending on the fluorophore of the secondary antibody.
Suppl. Figure 6: Effects of NFA on cellular COX-2 expression. Representative Western Blot of A549 cells treated with (A) NFA with different carbon chain length and (B) different Michael acceptor position for 24 h without IL-1 β stimulation (1 ng/ml) and the densitometrical evaluation of n=4-5 experiments (C, D). Representative Western Blot of A549 cells stimulated with IL-1 β and subsequent treatment with (E) NFA with different carbon chain length and (F) different Michael acceptor position for 24 h and the densitometrical evaluation of n=4-5 experiments (G, H). Intracellular COX-2 levels were normalized to β-actin and presented as mean + SD. Statistical significance was calculated by one-way ANOVA with Bonferroni post-test. P-values of **** P ≦0.0001, **P ≦0.0021, and *P ≦0.03 are considered significant. COX, cyclooxygenase; DMSO , dimethyl sulfoxide; NFA, nitro fatty acids
(1 picture or pasted object on this page, not shown here)

NF-κB p65 = NF-κB p65 transcription factor ELISA in TNFα-stimulated HCT-116 cells; type: cell-based; details: Homo sapiens; 10 µM, 14 h preincubation, then 10 ng/ml TNF-α 4 h, HCT-116, ELISA; read-out: inhibition of NF-κB p65 signaling
Protocol: (§1) The Nrf-2 and NF-κB transcription factors in the nuclear extracts were detected using an Nrf-2 Transcription Assay Kit (Cayman Chemical, # 600590) and NF-κB (p65 and p50) Transcription Factor Assay Kit (Cayman Chemical, # 10007889 and # 10006912). Prior to assay performance, the nuclear extracts were generated using a Nuclear Extraction Kit (Cayman Chemical, # 10009277). The assay was performed according to the manufacturer’s instructions. For all kits, the nuclear extracts were incubated overnight at 4°C. Development was carried out for 15–20 min or until the wells turned medium to dark blue. Five minutes after the stop solution had been added, the absorbance was read at 450 nm using a plate reader.
(§2) The proteasome inhibitor MG132 ([Lee and Goldberg, 1998]) was used as a positive control, as proteasomal inhibition leads to stabilization of I-κB and thus inhibits the activation of the NF-κB signaling pathway. We used a MG132 incubation period of 4 h as longer incubations have been described to activate NF-κB signaling ([Lee et al., 2013]).
(§3) FIGURE 1 Effects of NFA on the NF-κB p65 and p50 signaling pathway in colorectal cancer cells. […] Incubation for 4 h with the proteasome inhibitor MG132 (1 µM) served as the positive control. […] Values are normalized to protein concentration and unstimulated vehicle control. Data are represented as mean ± SD of (A) n = 3 (DMSO, 16.9.9, 9NOA control of right panel, 18.4.4, 18.6.7, and 18.9.10), n = 4 (all other derivatives) and (B) n = 5. Statistical significance was calculated by one-way analysis of variance (ANOVA) with Bonferroni post-test. *p ≤ 0.03, **p ≤ 0.0021, ***p ≤ 0.0002, ****p ≤ 0.0001 were considered significant versus TNF-α treatment.

NF-κB p50 = NF-κB p50 transcription factor ELISA in TNFα-stimulated HCT-116 cells; type: cell-based, human; details: 14 h preincubation, then 10 ng/ml TNF-α 4 h, HCT-116, ELISA; for inhibition of NF-κB p50 signaling: 10 µM
Protocol: as §1, §2, §3

sEH = target: T1, sEH (Homo sapiens, UniProt P34913); test: Cell-based sEH activity assay in HepG2 cells; design: endogenous in cells; host or cells: HepG2; details: for inhibition of sEH activity in HepG2 cells: 10 µM, 24 h
T1 sequence (P34913 1-555): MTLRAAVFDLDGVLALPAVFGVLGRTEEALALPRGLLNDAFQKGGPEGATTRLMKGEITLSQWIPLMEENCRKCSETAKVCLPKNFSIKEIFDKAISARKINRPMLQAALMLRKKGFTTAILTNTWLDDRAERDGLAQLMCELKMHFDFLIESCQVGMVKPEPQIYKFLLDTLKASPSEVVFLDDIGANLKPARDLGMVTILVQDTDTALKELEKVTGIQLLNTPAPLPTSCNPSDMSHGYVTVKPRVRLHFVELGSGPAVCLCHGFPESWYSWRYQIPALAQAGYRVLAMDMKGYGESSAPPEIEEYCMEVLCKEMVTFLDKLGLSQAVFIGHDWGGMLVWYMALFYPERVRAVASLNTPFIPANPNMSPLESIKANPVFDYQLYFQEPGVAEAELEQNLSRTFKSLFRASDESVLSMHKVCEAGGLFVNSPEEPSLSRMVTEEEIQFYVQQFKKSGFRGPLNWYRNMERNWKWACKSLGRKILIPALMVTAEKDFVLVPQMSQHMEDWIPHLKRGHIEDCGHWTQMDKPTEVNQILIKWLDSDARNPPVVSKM
Protocol: sEH activity in the cells was analyzed using a Soluble Epoxide Hydrolase Cell-Based Assay Kit (Cayman Chemical, #600090). […] Following incubation, the cells were processed according to the manufacturer’s instructions. The assay uses an internal signal subtraction to minimize potential errors generated by sEH-independent product formation due esterase mediated hydrolysis. The fluorescence intensity of the samples was measured in a plate reader at excitation/emission wavelengths of 330/465 nm sEH activity was calculated by the 6-methoxy-2-naphthaldehyde standard curve.
FIGURE 3 Effects of NFA on sEH activity. […] Data are the mean ± SEM of n = 3–7. […] The cells were lysed, and hydrolase activity was measured by Epoxy Fluor 7 lysis. […] Statistical significance was calculated by one-way ANOVA with Bonferroni post-test and multiple comparisons against the DMSO control.

Row | Structure (SMILES) | COX-2 expression in IL-1β-stimulated A549 cells (COX-2 expression) | inhibition at 10 µM (NF-κB p65) | inhibition of NF-κB p50 signaling (NF-κB p50) | inhibition of sEH activity in HepG2 cells (sEH) | other results
1 | CCCCCCCCCCCCC=C(CCCC(=O)O)[N+](=O)[O-] [18.5.5, 5-nitro-octadec-5-enoic acid] | highest effects |  |  |  | 
2 | CCCCCCCCCCC=C(CCCCCC(=O)O)[N+](=O)[O-] [18.7.7, 7-nitro-octadec-7-enoic acid] | highest effects | ~90% | most effective p50 inhibitors |  | COX-2 gene expression in non-stimulated A549 cells (COX-2 expression; without IL-1β): clearly increased COX-2 gene expression
3 | CCCCCCCCCC=C(CCCCCCC(=O)O)[N+](=O)[O-] [18.8.8, 8-nitro-octadec-8-enoic acid] | highest effects | 50% | most effective p50 inhibitors |  | 
4 | CCCCCCCCCC(=CCCCCCCC(=O)O)[N+](=O)[O-] [18.8.9, 9-nitro-octadec-8-enoic acid] |  | 50% | most effective p50 inhibitors |  | 
5 | CCCCCCCCC=C(CCCCCCCC(=O)O)[N+](=O)[O-] [18.9.9, 9-nitro-octadec-9-enoic acid] |  | 50% | most effective p50 inhibitors |  | inhibition at 10 µM (NF-κB p50; Homo sapiens, read-out: inhibition of NF-κB p50 signaling): ~60%
6 | CCCCCCCCC(=CCCCCCCCC(=O)O)[N+](=O)[O-] [18.9.10, 10-nitro-octadec-9-enoic acid] |  |  |  | most efficient enzyme inhibition | 
7 | CCCCCCCC=C(CCCCCCCCC(=O)O)[N+](=O)[O-] [18.10.10, 10-nitro-octadec-10-enoic acid] |  |  |  | most efficient enzyme inhibition | 
8 | CCCCCCC=C(CCCCCCCCCC(=O)O)[N+](=O)[O-] [18.11.11, 11-nitro-octadec-11-enoic acid] |  |  |  | most efficient enzyme inhibition | 
9 | CCCCCCCC/C=C\CCCCCCCC(=O)O [OA, oleic acid, reference compound] |  |  |  | strong suppressive effect | inhibition at 10 µM (sEH; HepG2, 24 h): > 50%
